Results on 58 compounds are retold here after US10287266B2, “Compounds and compositions for inhibiting the activity of SHP2” (NOVARTIS AG, priority 2015, dated 2019).

For this experiment, the target named is T1, SHP2 (Homo sapiens, UniProt Q06124).
T1 sequence (Q06124 1-593): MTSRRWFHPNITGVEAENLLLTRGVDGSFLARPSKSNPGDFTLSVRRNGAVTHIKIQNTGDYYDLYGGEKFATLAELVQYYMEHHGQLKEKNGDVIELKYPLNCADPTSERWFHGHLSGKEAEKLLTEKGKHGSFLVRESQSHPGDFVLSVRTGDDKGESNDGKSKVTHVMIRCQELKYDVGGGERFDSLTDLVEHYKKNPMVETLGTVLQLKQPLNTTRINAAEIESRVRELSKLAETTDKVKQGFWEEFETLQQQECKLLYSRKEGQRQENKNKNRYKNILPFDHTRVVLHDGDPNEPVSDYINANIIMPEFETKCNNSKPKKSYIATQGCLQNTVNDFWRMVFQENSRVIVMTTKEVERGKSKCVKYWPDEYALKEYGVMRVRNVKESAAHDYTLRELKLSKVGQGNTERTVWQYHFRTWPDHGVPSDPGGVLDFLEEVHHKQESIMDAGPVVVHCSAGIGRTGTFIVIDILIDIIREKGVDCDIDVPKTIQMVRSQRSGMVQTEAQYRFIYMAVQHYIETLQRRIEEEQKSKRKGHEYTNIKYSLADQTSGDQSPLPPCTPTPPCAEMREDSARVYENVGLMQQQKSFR
Nature of the experiment: SHP2 Allosteric Inhibition Assay. It is filed as biochemical. The conditions noted are these: 0.5 nM SHP2 activated with 0.5 μM peptide IRS1_pY1172(dPEG8)pY1222; surrogate substrate DiFMUP, prompt fluorescence, 25° C. An excerpt: SHP2 Allosteric Inhibition Assay
SHP2 is allosterically activated through binding of bis-tyrosyl-phorphorylated peptides to its Src Homology 2 (SH2) domains. The latter activation step leads to the release of the auto-inhibitory interface of SHP2, which in turn renders the SHP2 protein tyrosine phosphatase (PTP) active and available for substrate recognition and reaction catalysis. The catalytic activity of SHP2 was monitored using the surrogate substrate DiFMUP in a prompt fluorescence assay format.
After 30-60 minutes incubation at 25° C., the surrogate substrate DiFMUP (Invitrogen, cat# D6567) was added to the reaction and incubated at 25° C. for 30 minutes. […] The inhibitor dose response curves were analyzed using normalized IC50 regression curve fitting with control based normalization.
Usually AC50 stands for the midpoint of the concentration-response curve, whichever way the signal moves. A low value points to activity at low concentration. The compound `C[C@H]1OCC2(CCN(c3cnc(Sc4ccnc(N)c4Cl)cn3)CC2)[C@@H]1N` [Example 12] showed an AC50 of 5.7 nM.

Turning to `C[C@@H]1OCC2(CCN(c3cnc(Sc4ccnc(F)c4Cl)cn3)CC2)[C@@H]1N` [Example 111], half-maximal activity (AC50) was put at 44.1 nM.

`CC1(O)C[C@@H](N)C2(CCN(c3cnc(Sc4ccnc(N)c4Cl)cn3)CC2)C1` (stereo partly shown) [Example 41] showed a half-maximal activity concentration (AC50) of 28.2 nM. In the case of `CC1(N)CCN(c2cnc(Sc3cccc(N)c3Cl)cn2)CC1` [Example 36] it was 23.6 nM.

`N[C@@H]1CCCC12CCN(c1cnc(Sc3ccccc3Cl)cn1)CC2` [Example 73] returned an AC50 of 17.3 nM. For `N[C@@H]1CCCC12CCN(c1cnc(Sc3cccc(NC(=O)C4CC4)c3)cn1)CC2` [Example 96], the activity was half-maximal at 77.7 nM (AC50). In the case of `Nc1nccc(Sc2cnc(N3CCC4(CC3)C[C@H](O)C[C@H]4N)cn2)c1Cl` [Example 11] it was 4.1 nM; in that of `Nc1nccc(Sc2cnc(N3CCC4(CC3)COCCN4)cn2)c1Cl` [Example 53], 215 nM. In the case of `N[C@@H]1CCCC12CCN(c1cnc(Sc3ccc(C(F)(F)F)cc3)cn1)CC2` [Example 87] it was 235 nM; in that of `N[C@@H]1CCCC12CCN(c1cnc(Sc3ccccc3C(F)(F)F)cn1)CC2` [Example 67], 920 nM.

Take `N[C@@H]1CCCC12CCN(c1cnc(Sc3ccc(Br)c(Cl)c3)cn1)CC2` [Example 91]: the activity was half-maximal at 666 nM (AC50). In the case of `Nc1cccc(Sc2cnc(N3CCC4(CCC[C@H]4N)CC3)cn2)c1` [Example 79] it was 31.4 nM; in that of `NCC1(c2ccccn2)CCN(c2cnc(Sc3ccnc(N)c3Cl)cn2)CC1` [Example 45], 47.1 nM; in that of `CO[C@H]1C[C@@H](N)C2(CCN(c3cnc(Sc4ccnc(N)c4Cl)cn3)CC2)C1` [Example 17], 6.2 nM. In the case of `N[C@@H]1CCCC12CCN(c1cnc(Sc3ccncc3F)cn1)CC2` [Example 95] it was 159 nM. In the case of `Nc1cc(Sc2cnc(N3CCC4(CCC[C@H]4N)CC3)cn2)c(Cl)c(N)n1` [Example 37] it was 24 nM; in that of `NC1=NC2(CCN(c3cnc(Sc4ccnc(Cl)c4Cl)cn3)CC2)CO1` [Example 4, 8-(5-((2,3-dichloropyridin-4-yl)thio)pyrazin-2-yl)-3-oxa-1,8-diazaspiro[4.5]dec-1-en-2-amine], 17.4 nM; in that of `N[C@@H]1CCCC12CCN(c1cnc(Sc3cccc(O)c3)cn1)CC2` [Example 78], 31.8 nM. In the case of `CC(C)(C)c1cccc(Sc2cnc(N3CCC4(CCC[C@@H]4N)CC3)cn2)c1` [Example 127], the AC50 stood at 44.9 nM. In turn, `N[C@@H]1CCCC12CCN(c1cnc(Sc3ccc(OC(F)(F)F)cc3)cn1)CC2` [Example 88] registered a half-maximal activity concentration (AC50) of 82.3 nM. In the case of `N[C@@H]1CCCC12CCN(c1cnc(Sc3cccc(C4CC4)c3)cn1)CC2` [Example 84] it was 33.9 nM; in that of `C[C@@H]1OCC2(CCN(c3cnc(Sc4ccnc(F)c4)cn3)CC2)[C@@H]1N` [Example 114], 120 nM; in that of `Nc1cc(Sc2cnc(N3CCC4(CC3)C[C@H](F)C[C@H]4N)cn2)c(Cl)c(Cl)n1` [Example 61], 145 nM. In the case of `N[C@@H]1CCCC12CCN(c1cnc(Sc3ccccc3)cn1)CC2` [Example 72] it was 64.6 nM. In the case of `N[C@@H]1CCCC12CCN(c1cnc(Sc3ccc(F)cc3F)cn1)CC2` [Example 100] it was 151 nM; in that of `C[C@@H]1OCC2(CCN(c3cnc(Sc4cccc(O)c4)cn3)CC2)[C@@H]1N` [Example 118], 57 nM; in that of `N[C@H]1CCCC12CCN(c1cnc(Sc3ccccc3OC(F)(F)F)cn1)CC2` [Example 126], 130 nM. On to `C[C@@H]1OCC2(CCN(c3cnc(Sc4cccc(CO)c4)cn3)CC2)[C@@H]1N` [Example 117], for which the concentration at half-maximal activity (AC50) stood at 45.1 nM. Next, `CC1(CN)CCN(c2cnc(Sc3ccnc(N)c3Cl)cn2)CC1` [Example 25]: 10.7 nM.

In turn, `Nc1nccc(Sc2cnc(N3CCC4(CC3)C[C@@H](F)C[C@H]4N)cn2)c1Cl` [Example 27] returned a half-maximal activity concentration (AC50) of 12.1 nM. Consider `CCCC1(CN)CCN(c2cnc(Sc3ccnc(N)c3Cl)cn2)CC1` [Example 31], for which half-maximal activity (AC50) was put at 17.6 nM.

Compound `CC1(O)C[C@@H](N)C2(CCN(c3cnc(Sc4ccnc(N)c4Cl)cn3)CC2)C1` (stereo partly shown) [Example 26] had an AC50 of 11.5 nM. For the compound `N[C@@H]1COCC12CCN(c1cnc(Sc3ccncc3Cl)cn1)CC2` [Example 23], the concentration at half-maximal activity (AC50) is 10.4 nM.

The compound `Cc1cccc(Sc2cnc(N3CCC4(CCC[C@@H]4N)CC3)cn2)c1` [Example 123] registered an AC50 of 75.8 nM. Take `Nc1nccc(Sc2cnc(N3CCC4(CCC(CO)[C@H]4N)CC3)cn2)c1Cl` (stereo partly shown) [Example 133]: the AC50 was found to be 14.6 nM. Next, `N[C@@H]1CCCC12CCN(c1cnc(Sc3ccnc(F)c3Cl)cn1)CC2` [Example 99]: 43.9 nM; `Nc1nccc(Sc2cnc(N3CCC4(CC3)COC[C@H]4N)cn2)c1Cl` [Example 16]: 6.1 nM; `N[C@@H]1CCCC12CCN(c1cnc(Sc3ccnc4c3CCC4)cn1)CC2` [Example 97]: 29.3 nM. Next, `Cc1ccccc1Sc1cnc(N2CCC3(CCC[C@H]3N)CC2)cn1` [Example 121]: 44.9 nM; `N[C@@H]1CCCC12CCN(c1cnc(Sc3cccc(CO)c3)cn1)CC2` [Example 81]: 54.8 nM. In the case of `CC1CCC2(CCN(c3cnc(Sc4ccnc(N)c4Cl)cn3)CC2)[C@@H]1N` (stereo partly shown) [Example 13] it was 5.9 nM; in that of `CCCC1(N)CCN(c2cnc(Sc3ccnc(N)c3Cl)cn2)CC1` [Example 42], 31.3 nM; in that of `N[C@@H]1COCC12CCN(c1cnc(Sc3ccnc(Cl)c3Cl)cn1)CC2` [Example 19], 8.5 nM. `Cc1cccc(Sc2cnc(N3CCC4(CCC[C@H]4N)CC3)cn2)c1` [Example 64] returned a half-maximal activity concentration (AC50) of 48.2 nM.

The compound `N[C@@H]1CCCC12CCN(c1cnc(Sc3cccc(Br)c3)cn1)CC2` [Example 82] registered a half-maximal activity concentration (AC50) of 81.1 nM. In the case of `Nc1nccc(Sc2cnc(N3CCC4(CC3)CC(F)(F)C[C@H]4N)cn2)c1Cl` [Example 56] it was 23.8 nM.

For `N[C@@H]1CCCC12CCN(c1cnc(Sc3cccc(F)c3Cl)cn1)CC2` [Example 92], half-maximal activity (AC50) was put at 5.77 nM.

`C[C@@H]1OCC2(CCN(c3cnc(Sc4cc[nH]c(=O)c4Cl)cn3)CC2)[C@@H]1N` [Example 109]: the half-maximal activity concentration (AC50) is 28.8 nM. In the case of `N[C@@H]1CCCC12CCN(c1cnc(Sc3cccnc3C(F)(F)F)cn1)CC2` [Example 35] it was 20.8 nM. Next, `CC(C)C1(CN)CCN(c2cnc(Sc3ccnc(N)c3Cl)cn2)CC1` [Example 32]: 17.8 nM; `N[C@H]1CCCC12CCN(c1cnc(Sc3ccccc3)cn1)CC2` [Example 130]: 621 nM; `CCc1ccc(Sc2cnc(N3CCC4(CCC[C@@H]4N)CC3)cn2)cc1` [Example 128]: 287 nM.

As for `Nc1cc(Sc2cnc(N3CCC4(CCC[C@H]4N)CC3)cn2)c(Cl)c(Cl)n1` [Example 33], the AC50 is 19.3 nM. In the case of `N[C@@H]1CCCC12CCN(c1cnc(Sc3cnnc(O)c3Cl)cn1)CC2` [Example 7, (R)-5-((5-(1-amino-8-azaspiro[4.5]decan-8-yl)pyrazin-2-yl)thio)-4-chloropyridazin-3-ol] it was 213 nM; in that of `CC(C)c1ccccc1Sc1cnc(N2CCC3(CCC[C@@H]3N)CC2)cn1` [Example 124], 98 nM; in that of `Nc1cc(Sc2cnc(N3CCC4(CC3)COC[C@H]4N)cn2)c(Cl)c(Cl)n1` [Example 24], 10.4 nM.

Take `N[C@@H]1COCC12CCN(c1cnc(Sc3ccnc(F)c3Cl)cn1)CC2` [Example 34]: the half-maximal activity concentration (AC50) was determined as 19.6 nM. Next, `Nc1nccc(Sc2cnc(N3CCC4(CCCN4)CC3)cn2)c1Cl` [Example 48]: 63.4 nM.
